Where two headings read alike, the source gives them in different places.
Key:
MCF7 [1] = system: MCF7; set-up: method as in doi:10.1039/C5RA19857G; settings: MTT; read-out: EC50, tumor cells MCF7; cited from earlier work
caspase 9 in MCF7 cells = test: Caspase 9 activity, fluorimetric; assay type: cell-based, human; settings: MCF7, 2 h, 50 µM
Procedure: Activation of caspase 3, caspase 7 and caspase 9 was measured using the Caspase 3/7 Fluorescence Assay kit (Cayman Chemical, Ann Arbor, MI; #10,009,135) and the Caspase 9 fluorimetric assay kit (Enzo Life Science, Roma, Italy; #ALX-850-224). The results were expressed as nmoles of the hydrolyzed substrate of each caspase/mg cellular proteins, according to a previously set titration curve.

MCF7 and A549 cells = test: Whole cell ROS, DCFDA-AM probe; assay type: cell-based, human; settings: MCF7 and A549, 2 h, 50 µM
Procedure: (§1) Intramitochondrial reactive oxygen species (ROS) were measured using the MitoSOX fluorescent probe (Invitrogen ThermoScientific, # M36008), according to the manufacturer’s instructions. For total ROS, cells were incubated with 5 µmol/L of 5-(and-6)-chlorometyl-20,70-dichlorodihydro-fluorescein diacetate-acetoxymethyl ester (DCFDA-AM, Sigma, #21,884), as described by Riganti et al. 2015 [21]. The results are expressed as nmoles/mg mitochondrial or cellular proteins, respectively.

A549 cells [2] = test: Mitochondrial depolarization, JC-1 staining; assay type: cell-based, human; settings: A549, 2 h, 50 µM
Procedure: (§2) Staining with the JC-1 fluorescent probe (Biotium Inc., Freemont, CA; #30,001-30001-T) was performed as described in Riganti et al. 2015 [21]. Fluorescence units were used to calculate the percentage of green-fluorescent (i.e., depolarized) mitochondria vs red-fluorescent (i.e., polarized) mitochondria.

MCF7 cells [3] = test: Mitochondrial depolarization, JC-1 staining; assay type: cell-based, human; settings: MCF7, 2 h, 50 µM
Procedure: as §2

A549 [4] = system: A549; set-up: method as in doi:10.1039/C5RA19857G; settings: MTT; read-out: EC50, tumor cells A549; cited from earlier work
P-gp = molecular target: T1, P-gp (Homo sapiens, UniProt P08183); settings: cited from earlier work
T1 construct: expressed in transfected cells; host or cells: MDCK-MDR1

sigma-2 receptors = sigma-2 receptors (Homo sapiens, UniProt Q5BJF2); settings: read-out: Sigma-2 Affinity Ki; cited from earlier work
MCF10A = test: Cell viability, MTT assay at 48 h; assay type: cell-based; settings: Homo sapiens, MCF-10A, read-out: EC50 ± SEM, normal cells MCF10A
Procedure: (§3) Human MCF7 breast adenocarcinoma (#HTB-22) and human A549 carcinoma (#CCL-85) cell lines, non-tumor human breast (MCF10A, #CRL-10317) and lung (BEAS-2B, #CRL-9482) cells were obtained from American Type Culture Collection (ATCC, Bethesda, MD). MCF7 cells were cultured in DMEM medium (Gibco Thermo Scientific, Waltham, MA; #10,565,018), A549 in HAM’s F12 medium (Gibco Thermo Scientific; #11,765,054), and BEAS-2B in RPMI-1640 medium (Gibco Thermo Scientific; # 61,870,010), all supplemented with 10% v/v fetal bovine serum (FBS; Sigma, St. Louis, MO; #F4135) and 1% v/v penicillin–streptomycin (Sigma; #P4458). MCF10A cells were cultured in DMEM/F12 medium (Gibco Thermo Scientific; #31,331,028) supplemented with 5% v/v horse serum (Sigma; #H1270) and 1% v/v penicillin–streptomycin, 20 ng/mL epidermal growth factor (Sigma, #E4127), 10 µg/mL insulin (Sigma, #I3536), […] hydrocortisone (Sigma, #H0888), 100 ng/mL cholera toxin (Sigma, #C8052). Cells were kept in a humidified incubator at 37 °C with 5% CO2.
(§4) Cell growth was determined using the MTT assay at 48 h. On day 1, 25,000 cells/well were seeded into 96-well plates in a volume of 100 μL. On day 2, the various drug concentrations (1 μM–100 μM) were added. In all experiments, the various drug solvents (EtOH, Sigma, # E7148; DMSO, Sigma, # D8418) were added to each control to evaluate possible cytotoxicity of the solvent. After the established incubation time with drugs (48 h), MTT (0.5 mg/mL, Sigma # M2003) was added to each well, and after 3–4 h incubation at 37 °C, the supernatant was removed. Formazan crystals were solubilized using 100 μl of DMSO/EtOH (1:1) and absorbance values at 570 and 630 nm were determined on the microplate reader Victor 3 from PerkinElmer Life Sciences (Waltham, MA).

BEAS-2B = test: Cell viability, MTT assay at 48 h; assay type: cell-based; settings: Homo sapiens, read-out: EC50 ± SEM, normal cells BEAS-2B
Procedure: as §3, §4

[5] = system: GRP78, ATF6, IRE1, PERK in MCF7 cells; test: ER stress markers, qRT-PCR and immunoblotting; assay type: cell-based, human; settings: MCF7, 2 h, 50 µM
Procedure: 1 μg total RNA was reverse-transcribed using the iScript Reverse Transcription Supermix kit (Bio-Rad Laboratories, Hercules, CA; #1,708,840), according to the manufacturer’s instruction. 25 ng cDNA were amplified with 10 μL IQ™ SYBR Green Supermix (Bio-Rad Laboratories, # 1708880B05). Primers were designed with the qPrimer Depot software (http://primerdepot.nci.nih.gov/). qRT-PCR was carried out with a CFX96™ Real-Time Detector System (Bio-Rad Laboratories). Cycling conditions were: 30 s at 95 °C, followed by 40 cycles of denaturation (15 s at 95 °C), annealing/extension (30 s at 60 °C). The same cDNA preparation was used to quantify the genes of interest and the housekeeping gene S14, used to normalize gene expression. The relative quantitation of each sample was carried out using the Gene Expression Quantitation software (Bio-Rad Laboratories). Results were expressed in arbitrary units. For each gene, the expression in untreated cells was assumed to be “1”.
Cells were rinsed with ice-cold lysis buffer (50 mM, Tris, 10 mM EDTA, 1% v/v Triton-X100), supplemented with the protease inhibitor cocktail set III (80 μM aprotinin, 5 mM bestatin, 1.5 mM leupeptin, 1 mM pepstatin; Sigma, # 535,140), 2 mM phenylmethylsulfonyl fluoride (Sigma: #P7626) and 1 mM Na3VO4, (Sigma; #S6508) then sonicated and centrifuged at 13,000 × g for 10 min at 4 °C. 20 μg protein extracts were subjected to SDS–PAGE and probed with the antibodies for: GRP78 (#ab21685), ATF6 (#ab122897), IRE-1 (#ab37073), PERK (#ab65142), actin (#ab1801) (all from Abcam, Cambridge, UK), followed by a peroxidase-conjugated secondary antibody (Bio-Rad Laboratories). The membranes were washed with Tris-buffered saline-Tween 0.1% v/v solution, and the proteins were detected by enhanced chemiluminescence (Bio-Rad Laboratories, #1,705,061). The densitometric analysis was performed using the ImageJ software (https://imagej.nih.gov/), calculating the ratio protein of interest/actin band density, putting actin band density as 1 relative unit in each condition. Densitometric analysis and whole blots are included as Supporting Information.

A549 cells [6] = test: Mitochondrial ROS, MitoSOX staining; assay type: cell-based, human; settings: A549, 2 h, 50 µM
Procedure: as §1

MCF7 cells [7] = test: Mitochondrial ROS, MitoSOX staining; assay type: cell-based, human; settings: MCF7, 2 h, 50 µM
Procedure: as §1

MCF7 [8] = test: Cell viability, MTT assay at 48 h; assay type: cell-based; settings: Homo sapiens, MCF7, 48 h, read-out: EC50 ± SEM, tumor cells MCF7
Procedure: as §3, §4

A549 [9] = test: Cell viability, MTT assay at 48 h; assay type: cell-based; settings: Homo sapiens, A549, 48 h, read-out: EC50 ± SEM, tumor cells A549
Procedure: as §3, §4

sigma-2 receptors, sequence (Q5BJF2 whole entry): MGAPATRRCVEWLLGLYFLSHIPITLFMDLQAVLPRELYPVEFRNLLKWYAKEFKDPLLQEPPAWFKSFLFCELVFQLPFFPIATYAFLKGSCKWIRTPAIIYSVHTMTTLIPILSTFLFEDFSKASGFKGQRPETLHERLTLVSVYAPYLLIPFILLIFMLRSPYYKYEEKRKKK
T1 sequence (P08183 whole entry): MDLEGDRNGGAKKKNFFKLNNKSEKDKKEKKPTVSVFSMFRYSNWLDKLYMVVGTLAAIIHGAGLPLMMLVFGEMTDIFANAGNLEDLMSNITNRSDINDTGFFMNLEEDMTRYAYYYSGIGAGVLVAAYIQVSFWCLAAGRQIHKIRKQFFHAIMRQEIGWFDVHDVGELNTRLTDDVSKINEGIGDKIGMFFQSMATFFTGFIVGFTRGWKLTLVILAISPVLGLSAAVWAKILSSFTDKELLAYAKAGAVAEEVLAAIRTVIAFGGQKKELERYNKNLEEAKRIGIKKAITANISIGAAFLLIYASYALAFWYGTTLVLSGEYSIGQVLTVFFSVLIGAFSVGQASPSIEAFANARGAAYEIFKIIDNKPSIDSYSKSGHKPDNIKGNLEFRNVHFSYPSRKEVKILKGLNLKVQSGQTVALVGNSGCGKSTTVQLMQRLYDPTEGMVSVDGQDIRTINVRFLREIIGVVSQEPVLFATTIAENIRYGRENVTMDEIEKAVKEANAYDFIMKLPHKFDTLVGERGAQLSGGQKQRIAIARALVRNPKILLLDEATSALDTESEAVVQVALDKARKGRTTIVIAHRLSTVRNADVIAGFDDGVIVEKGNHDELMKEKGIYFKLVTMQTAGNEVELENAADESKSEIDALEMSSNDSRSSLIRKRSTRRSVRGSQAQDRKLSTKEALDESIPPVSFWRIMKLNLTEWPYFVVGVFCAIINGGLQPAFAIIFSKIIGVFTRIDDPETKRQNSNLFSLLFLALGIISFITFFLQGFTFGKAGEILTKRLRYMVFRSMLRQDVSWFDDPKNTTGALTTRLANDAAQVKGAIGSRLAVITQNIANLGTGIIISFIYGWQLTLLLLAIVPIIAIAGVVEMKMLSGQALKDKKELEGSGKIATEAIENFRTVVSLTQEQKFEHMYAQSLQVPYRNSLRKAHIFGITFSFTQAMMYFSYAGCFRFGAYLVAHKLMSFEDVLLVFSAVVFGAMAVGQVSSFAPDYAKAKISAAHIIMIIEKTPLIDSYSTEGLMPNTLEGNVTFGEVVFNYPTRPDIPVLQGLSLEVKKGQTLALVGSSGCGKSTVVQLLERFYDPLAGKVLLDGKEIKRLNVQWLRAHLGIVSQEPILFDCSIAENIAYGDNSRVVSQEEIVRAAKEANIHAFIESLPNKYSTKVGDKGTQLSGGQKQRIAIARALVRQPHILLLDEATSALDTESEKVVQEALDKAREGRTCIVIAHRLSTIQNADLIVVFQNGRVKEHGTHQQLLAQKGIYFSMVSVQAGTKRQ

SMILES	EC50 (MCF7 [1]) [µM]	Rank order of caspase 9 activation (caspase 9 in MCF7 cells)	ROS levels in whole cells (DCFDA-AM) (MCF7 and A549 cells)	Mitochondrial depolarization (JC-1 staining) (A549 cells [2])	Mitochondrial depolarization (JC-1 staining) (MCF7 cells [3])	EC50 (A549 [4]) [µM]	EC50 (P-gp) [µM]	Ki (sigma-2 receptors) [µM]	EC50 (MCF10A) [µM]	EC50 (BEAS-2B) [µM]	Expression of ER stress markers GRP78, ATF6, IRE1, PERK [5]	Mitochondrial ROS (MitoSOX) (A549 cells [6])	Mitochondrial ROS (MitoSOX) (MCF7 cells [7])	P-gp Activity EC50 (P-gp)	EC50 (MCF7 [8]) [µM]	EC50 (A549 [9]) [µM]
CN(C)C(=S)N/N=C1\C(=O)N(CCCCN2CCN(C3CCCCC3)CC2)c2ccccc21 [PS3, (Z)-2-[1-[4-(4-cyclohexylpiperazin-1-yl)butyl]-2-oxoindolin-3-ylidene]-N,N-dimethylhydrazinecarbothioamide]	1.81	FA4 > MLP44 > PS3 > ACThio1	not significantly increased	did not produce any detectable changes in mitochondrial polarization	did not produce any detectable changes in mitochondrial polarization	2.2	2.83	0.0354	3.03 ± 0.6	6.22 ± 1.3	modest effects	–	–	–	–	–
COc1cc2c(cc1OC)CN(CCCCN1C(=O)/C(=N\NC(=S)N(C)C)c3ccccc31)CC2 [MLP44, (Z)-2-(1-(4-(6,7-Dimethoxy-3,4-dihydroisoquinolin-2(1H)-yl)butyl)-2-oxoindolin-3-ylidene)-N,N-dimethylhydrazinecarbothioamide]	24.6	FA4 > MLP44 > PS3 > ACThio1	variable	totally insensitive	strong depolarization	10.4	3.04	0.0341	24.2 ± 0.8	11.9 ± 2.1	modest effects	increased	increased	–	–	–
CN(C)C(=S)N/N=C1\C(=O)Nc2ccccc21 [ACThio1, (Z)-N,N-dimethyl-2-(2-oxoindolin-3-ylidene)hydrazinecarbothioamide]	–	FA4 > MLP44 > PS3 > ACThio1	not significantly increased	did not produce any detectable changes in mitochondrial polarization	did not produce any detectable changes in mitochondrial polarization	–	–	> 10	2.09 ± 0.4	3.39 ± 0.8	no or negligible effect	–	–	Not Active^d	5.88 ± 1.1	4.08 ± 0.4
